According to patent US11066369B2, “N-(pyridin-2-yl)pyridine-sulfonamide derivatives and their use in the treatment of disease” (Novartis AG, priority 2016, dated 2021):
Counter-ions that a name gives are not always drawn. Like-named read-outs stand apart in the source and are kept apart here.

Biological target: T1, horseradish peroxidase (HRP) tagged delF508-CFTR (Homo sapiens, UniProt P13569, DEL508-508)
T1 construct: expressed in transfected cells
Assay: Measurement of delF508-CFTR-HRP surface expression in CFBE41o- cells;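 for DelF508-CFTR-HRP Amax %: percent efficacy relative to reference corrector lumacaftor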
Type: cell-based
Conditions: CFBE41o- cells; for EC50: read-out: DelF508-CFTR-HRP EC50; for Emax: read-out: DelF508-CFTR-HRP Amax %
Procedure, shortened: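 CFBE41o- bronchial epithelial cells stably expressing delF508-CFTR with HRP in the fourth extracellular loop; expression induced 48h with 500 ng/mL doxycycline, then compounds added (top 10 μM, 10-point 3-fold series, ≤0.5% DMSO) for 24h at 37° C. Surface HRP measured by luminescence with cell-impermeant substrate; EC50 from logistic fit of triplicates, plate-normalized to lowest concentration; efficacy also relative to a reference corrector.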

[1] = mean of at least two replicates
[2] = delF508-CFTR-HRP surface expression

T1 sequence (P13569 with tags, fused parts or gaps DEL508-508): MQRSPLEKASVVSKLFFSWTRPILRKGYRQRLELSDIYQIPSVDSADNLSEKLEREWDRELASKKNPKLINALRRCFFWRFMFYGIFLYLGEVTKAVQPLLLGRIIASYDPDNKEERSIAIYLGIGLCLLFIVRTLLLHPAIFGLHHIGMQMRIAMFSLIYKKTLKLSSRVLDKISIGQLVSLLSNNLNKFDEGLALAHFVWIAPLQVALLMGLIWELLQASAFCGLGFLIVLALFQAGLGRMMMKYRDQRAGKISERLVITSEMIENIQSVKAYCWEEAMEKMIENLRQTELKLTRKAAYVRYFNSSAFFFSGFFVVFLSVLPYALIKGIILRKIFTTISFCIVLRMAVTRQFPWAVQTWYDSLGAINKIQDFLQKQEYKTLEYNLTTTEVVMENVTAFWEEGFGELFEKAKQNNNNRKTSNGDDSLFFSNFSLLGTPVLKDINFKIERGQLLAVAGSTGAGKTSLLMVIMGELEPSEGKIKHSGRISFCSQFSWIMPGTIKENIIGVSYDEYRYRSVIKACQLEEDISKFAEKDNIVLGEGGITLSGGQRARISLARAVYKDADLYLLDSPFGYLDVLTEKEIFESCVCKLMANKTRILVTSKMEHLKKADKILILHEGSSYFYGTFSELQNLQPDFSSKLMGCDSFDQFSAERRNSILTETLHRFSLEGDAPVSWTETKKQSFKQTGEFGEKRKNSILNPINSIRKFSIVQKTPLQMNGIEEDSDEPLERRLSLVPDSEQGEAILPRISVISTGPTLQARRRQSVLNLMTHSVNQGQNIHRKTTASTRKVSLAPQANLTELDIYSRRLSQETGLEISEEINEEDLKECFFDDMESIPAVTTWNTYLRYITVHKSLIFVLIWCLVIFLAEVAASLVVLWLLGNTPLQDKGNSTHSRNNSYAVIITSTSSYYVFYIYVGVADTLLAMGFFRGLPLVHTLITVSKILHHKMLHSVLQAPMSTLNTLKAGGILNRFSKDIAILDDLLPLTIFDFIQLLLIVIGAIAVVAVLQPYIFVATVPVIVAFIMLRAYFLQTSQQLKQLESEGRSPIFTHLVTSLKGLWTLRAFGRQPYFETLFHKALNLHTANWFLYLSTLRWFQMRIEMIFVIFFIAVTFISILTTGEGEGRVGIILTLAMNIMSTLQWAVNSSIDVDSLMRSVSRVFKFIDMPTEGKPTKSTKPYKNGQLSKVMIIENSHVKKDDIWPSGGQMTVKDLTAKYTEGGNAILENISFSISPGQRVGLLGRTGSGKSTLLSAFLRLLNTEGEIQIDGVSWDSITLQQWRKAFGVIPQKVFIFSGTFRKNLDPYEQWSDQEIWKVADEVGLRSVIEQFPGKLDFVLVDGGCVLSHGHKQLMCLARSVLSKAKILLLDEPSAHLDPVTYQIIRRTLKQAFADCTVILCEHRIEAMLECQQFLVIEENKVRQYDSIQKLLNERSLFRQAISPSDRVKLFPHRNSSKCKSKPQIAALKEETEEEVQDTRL

| EC50 [1] [nM] | Emax (surface expression Amax) [%] | Emax [2] [%] | EC50 [2] [nM] | Compound |
| --- | --- | --- | --- | --- |
| 1610 | 468 |  |  | C[C@@]1(C(=O)O)CCCN(c2cccc(S(=O)(=O)Nc3ccc(C4CC4)c(-c4ccccc4C4CC4)n3)n2)C1 [Example 407, (R)-1-(6-(N-(5-cyclopropyl-6-(2-cyclopropylphenyl)pyridin-2-yl)sulfamoyl)pyridin-2-yl)-3-methylpiperidine-3-carboxylic Acid] |
| 796 |  |  |  | CCCc1ccccc1-c1nc(NS(=O)(=O)c2cccc(N3CCCC(C)(C(=O)O)C3)n2)ccc1C(F)(F)F (centres unmarked) [Example 401, 3-methyl-1-(6-(N-(6-(2-propylphenyl)-5-(trifluoromethyl)pyridin-2-yl)sulfamoyl)pyridin-2-yl)piperidine-3-carboxylic Acid] |
| 1880 |  |  |  | Cc1c(F)cccc1-c1nc(NS(=O)(=O)c2cccc(N3CCC[C@@](C)(C(=O)O)C3)n2)ccc1C(F)(F)F [Example 417, (3R)-1-(6-{[6-(3-fluoro-2-methylphenyl)-5-(trifluoromethyl)pyridin-2-yl]sulfamoyl}pyridin-2-yl)-3-methylpiperidine-3-carboxylic Acid] |
| 2220 | 264 |  |  | Cc1ccc(F)cc1-c1nc(NS(=O)(=O)c2cccc(N3CCCC4(CC4C(=O)O)C3)n2)ccc1C(F)(F)F (centres unmarked) [Example 439, 5-(6-(N-(6-(5-fluoro-2-methylphenyl)-5-(trifluoromethyl)pyridin-2-yl)sulfamoyl)pyridin-2-yl)-5-azaspiro[2.5]octane-1-carboxylic Acid] |
|  |  | 404 | 2200 | Cc1ccccc1-c1nc(NS(=O)(=O)c2nc(N)ccc2F)ccc1Cl [Example 33, 6-amino-N-(5-chloro-6-(o-tolyl)pyridin-2-yl)-3-fluoropyridine-2-sulfonamide] |
|  |  | 196 | 3550 | Cc1cc(F)ccc1-c1nc(NS(=O)(=O)c2ccc(N)nc2)ccc1Cl [Example 71, 6-amino-N-(5-chloro-6-(4-fluoro-2-methylphenyl)pyridin-2-yl)pyridine-3-sulfonamide] |
|  |  | 450 | 2200 | [2H]C([2H])([2H])c1ccccc1-c1nc(NS(=O)(=O)c2ccnc(N)c2)ccc1Cl [Example 26, 2-amino-N-(5-chloro-6-(2-(methyl-d3)phenyl)pyridin-2-yl)pyridine-4-sulfonamide] |
| 2360 | 990 |  |  | CCC1(C(=O)O)CCCN(c2cccc(S(=O)(=O)Nc3ccc(Cl)c(-c4ccccc4C)n3)n2)C1 (centres unmarked) [Example 452, 1-(6-(N-(5-chloro-6-(o-tolyl)pyridin-2-yl)sulfamoyl)pyridin-2-yl)-3-ethylpiperidine-3-carboxylic Acid] |
|  |  | 197 | 2640 | Cc1ccccc1-c1nc(NS(=O)(=O)c2cccc(N)n2)ccc1F [Example 70, 6-amino-N-(5-fluoro-6-(o-tolyl)pyridin-2-yl)pyridine-2-sulfonamide] |
|  |  | 141 | 2300 | Nc1cccc(S(=O)(=O)Nc2ccc(C(F)(F)F)c(-c3cccc(C(F)(F)F)c3)n2)n1 [Example 79, 6-amino-N-(5-(trifluoromethyl)-6-(3-(trifluoromethyl)phenyl)pyridin-2-yl)pyridine-2-sulfonamide] |
| 1360 | 272 |  |  | CC1(C(=O)O)CCN(c2cc(S(=O)(=O)Nc3ccc(C(F)(F)F)c(-c4ccccc4C4CCC4)n3)ccn2)CC1 [Example 378, 1-(4-(N-(6-(2-cyclobutylphenyl)-5-(trifluoromethyl)pyridin-2-yl)sulfamoyl)pyridin-2-yl)-4-methylpiperidine-4-carboxylic Acid] |
|  |  | 332 | 683 | CC(C)c1ccccc1-c1nc(NS(=O)(=O)c2cccc(N)n2)ccc1Cl [Example 50, 6-amino-N-(5-chloro-6-(2-isopropylphenyl)pyridin-2-yl)pyridine-2-sulfonamide] |
|  |  | 154 | 2740 | Cc1ccccc1-c1nc(NS(=O)(=O)c2cccc(N3CCNC[C@H]3C(=O)O)n2)ccc1C(F)(F)F [Example 354, (2S)-1-(6-{[6-(2-methylphenyl)-5-(trifluoromethyl)pyridin-2-yl]sulfamoyl}pyridin-2-yl)piperazine-2-carboxylic Acid] |
|  |  | 141 | 2730 | Nc1cccc(S(=O)(=O)Nc2ccc(Cl)c(-c3c(F)ccc(F)c3F)n2)n1 [Example 78, 6-amino-N-(5-chloro-6-(2,3,6-trifluorophenyl)pyridin-2-yl)pyridine-2-sulfonamide] |
|  |  | 266 | 1760 | Cc1ccccc1-c1nc(NS(=O)(=O)c2cccc(N3CCC(C)(C(=O)O)C3)n2)ccc1C(F)(F)F (centres unmarked) [Example 336, 3-methyl-1-(6-{[6-(2-methylphenyl)-5-(trifluoromethyl)pyridin-2-yl]sulfamoyl}pyridin-2-yl)pyrrolidine-3-carboxylic Acid] |
| 1670 | 330 |  |  | Cc1ccccc1-c1nc(NS(=O)(=O)c2cccc(N3CCC[C@@](C)(C(=O)O)C3)n2)ccc1C [Example 409, (R)-3-methyl-1-(6-(N-(5-methyl-6-(o-tolyl)pyridin-2-yl)sulfamoyl)pyridin-2-yl)piperidine-3-carboxylic Acid] |
|  |  | 159 | 3800 | O=S(=O)(Nc1ccc(C(F)(F)F)c(-c2ccc(F)cc2Cl)n1)c1cccc(N2CCNCC2)n1 [Example 153, N-(6-(2-Chloro-4-Fluorophenyl)-5-(Trifluoromethyl)Pyridin-2-yl)-6-(Piperazin-1-yl)Pyridine-2-Sulfonamide Hydrochloride] |
| 2510 | 284 |  |  | CC1(C(=O)O)CCN(c2cccc(S(=O)(=O)Nc3ccc(C(F)(F)F)c(-c4ccccc4OCC(F)(F)F)n3)n2)CC1 [Example 381, 4-methyl-1-(6-(N-(6-(2-(2,2,2-trifluoroethoxy)phenyl)-5-(trifluoromethyl)pyridin-2-yl)sulfamoyl)pyridin-2-yl)piperidine-4-carboxylic Acid] |
|  |  | 178 | 4030 | O=S(=O)(Nc1ccc(Cl)c(-c2ccccc2Cl)n1)c1cccc(N2CCNCC2)n1 [Example 156, N-(5-chloro-6-(2-chlorophenyl)pyridin-2-yl)-6-(piperazin-1-yl)pyridine-2-sulfonamide] |
|  |  | 493 | 1360 | Nc1cccc(S(=O)(=O)Nc2ccc(Cl)c(-c3cc(F)ccc3C3CC3)n2)n1 [Example 21, 6-amino-N-(5-chloro-6-(2-cyclopropyl-5-fluorophenyl)pyridin-2-yl)pyridine-2-sulfonamide] |
|  |  | 412 | 1640 | Cc1cc(C)c(-c2nc(NS(=O)(=O)c3cccc(N)n3)ccc2Cl)c(C)c1 [Example 32, 6-amino-N-(5-chloro-6-mesitylpyridin-2-yl)pyridine-2-sulfonamide] |
| 1520 | 334 |  |  | Cc1ccc(NS(=O)(=O)c2cccc(N3CCC[C@@](C)(C(=O)O)C3)n2)nc1-c1ccccc1C1CC1 [Example 406, (R)-1-(6-(N-(6-(2-cyclopropylphenyl)-5-methylpyridin-2-yl)sulfamoyl)pyridin-2-yl)-3-methylpiperidine-3-carboxylic Acid] |
|  |  | 199 | 3300 | Nc1cccc(S(=O)(=O)Nc2ccc(Cl)c(-c3ccccc3F)n2)n1 [Example 69, 6-amino-N-(5-chloro-6-(2-fluorophenyl)pyridin-2-yl)pyridine-2-sulfonamide] |
| 1750 |  |  |  | Cc1ccccc1-c1nc(NS(=O)(=O)c2cccc(N3CCC[C@@H]4[C@@H](C(=O)O)C[C@@H]43)n2)ccc1C(F)(F)F (racemic) [Example 443, rac-(1SR,6RS,7SR)-2-(6-(N-(6-(o-tolyl)-5-(trifluoromethyl)pyridin-2-yl)sulfamoyl)pyridin-2-yl)-2-azabicyclo[4.2.0]octane-7-carboxylic Acid] |
|  |  | 235 | 2180 | O=S(=O)(Nc1ccc(Cl)c(-c2ccccc2C(F)(F)F)n1)c1cccc(N[C@@H]2COC[C@H]2O)n1 [Example 126, N-(5-chloro-6-(2-(trifluoromethyl)phenyl)pyridin-2-yl)-6-(((3R,4S)-4-hydroxytetrahydrofuran-3-yl)amino)pyridine-2-sulfonamide] |
|  |  | 429 | 1080 | CCc1ccccc1-c1nc(NS(=O)(=O)c2cccc(N)n2)ccc1Cl [Example 29, 6-amino-N-(5-chloro-6-(2-ethylphenyl)pyridin-2-yl)pyridine-2-sulfonamide] |
| 2410 |  |  |  | Cc1ccccc1-c1nc(NS(=O)(=O)c2cccc(N3CCC[C@@](C)(C(=O)O)C3)n2)ccc1Cl [Example 447, (R)-1-(6-(N-(5-chloro-6-(o-tolyl)pyridin-2-yl)sulfamoyl)pyridin-2-yl)-3-methylpiperidine-3-carboxylic Acid] |
| 2110 | 278 |  |  | Cc1ccccc1-c1nc(NS(=O)(=O)c2cccc(N3CCC4(CC3)CC(C(=O)O)C4)n2)ccc1C(F)(F)F [Example 446, 7-(6-(N-(6-(o-tolyl)-5-(trifluoromethyl)pyridin-2-yl)sulfamoyl)pyridin-2-yl)-7-azaspiro[3.5]nonane-2-carboxylic Acid] |
| 2950 | 410 |  |  | Cc1ccccc1-c1nc(NS(=O)(=O)c2cccc(N[C@@H]3CCC[C@@H](C(=O)O)C3)n2)ccc1C(F)(F)F (relative stereo) [Example 463, (1,3-trans)-3-((6-(N-(6-(o-tolyl)-5-(trifluoromethyl)pyridin-2-yl)sulfamoyl)pyridin-2-yl)amino)cyclohexanecarboxylic Acid] |
|  |  | 519 | 1010 | Nc1cccc(S(=O)(=O)Nc2ccc(Cl)c(-c3cc(Cl)ccc3C3CC3)n2)n1 [Example 16, 6-amino-N-(5-chloro-6-(5-chloro-2-cyclopropylphenyl)pyridin-2-yl)pyridine-2-sulfonamide] |
